According to patent US10206394B2, “Herbicidal compounds” (Syngenta Participations AG, priority 2014, dated 2019):
Read-outs that look alike come from different tables or passages of the source.

How the values were obtained:
Experiment in all cases: Glasshouse assay for herbicidal activity (pre- and post-emergence), percentage phytotoxicity
Format in all cases: in vivo
[1] = tested on: Echinochloa crus-galli (ECHCG); settings: Echinochloa crus-galli
Procedure, shortened: (§1)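 Percent injury was estimated by eye on a scale where 0% means no damage and 100% complete damage. Ratings came 15 DAA post-emergence and 20 DAA pre-emergence, with plants held under 16 h light and 65% humidity at 24/18 °C or 20/16 °C day/night.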

[2] = tested on: Alopecurus myosuroides (ALOMY); settings: Alopecurus myosuroides
Procedure, shortened: as §1

Lolium perenne (LOLPE) = settings: Lolium perenne
Procedure, shortened: as §1

Avena fatua (AVEFA) = settings: Avena fatua
Procedure, shortened: as §1

[3] = post-emergence, 360 h, Rate 250 g/ha, post-emergence, assessed visually 15 DAA, 100%=total damage, 0%=no damage, read-out: Post-emergence herbicidal activity (percentage phytotoxicity) ECHCG POST
[4] = pre-emergence, 480 h, Rate 250 g/ha, pre-emergence, assessed visually 20 DAA, 100%=total damage, 0%=no damage, read-out: Pre-emergence herbicidal activity (percentage phytotoxicity) ECHCG PRE
[5] = post-emergence, 360 h, Rate 250 g/ha, post-emergence, assessed visually 15 DAA, 100%=total damage, 0%=no damage, read-out: Post-emergence herbicidal activity (percentage phytotoxicity) ALOMY POST
[6] = pre-emergence, 480 h, Rate 250 g/ha, pre-emergence, assessed visually 20 DAA, 100%=total damage, 0%=no damage, read-out: Pre-emergence herbicidal activity (percentage phytotoxicity) ALOMY PRE
[7] = post-emergence, 360 h, Rate 250 g/ha, post-emergence, assessed visually 15 DAA, 100%=total damage, 0%=no damage, read-out: Post-emergence herbicidal activity (percentage phytotoxicity) LOLPE POST
[8] = pre-emergence, 480 h, Rate 250 g/ha, pre-emergence, assessed visually 20 DAA, 100%=total damage, 0%=no damage, read-out: Pre-emergence herbicidal activity (percentage phytotoxicity) LOLPE PRE
[9] = post-emergence, 360 h, Rate 250 g/ha, post-emergence, assessed visually 15 DAA, 100%=total damage, 0%=no damage, read-out: Post-emergence herbicidal activity (percentage phytotoxicity) AVEFA POST
[10] = pre-emergence, 480 h, Rate 250 g/ha, pre-emergence, assessed visually 20 DAA, 100%=total damage, 0%=no damage, read-out: Pre-emergence herbicidal activity (percentage phytotoxicity) AVEFA PRE

Row | Structure (SMILES) | pest or weed control at 250 g/ha [1, 3] | pest or weed control at 250 g/ha [1, 4] | pest or weed control at 250 g/ha [2, 5] | pest or weed control at 250 g/ha [2, 6] | pest or weed control at 250 g/ha (Lolium perenne (LOLPE); [7]) | pest or weed control at 250 g/ha (Lolium perenne (LOLPE); [8]) | pest or weed control at 250 g/ha (Avena fatua (AVEFA); [9]) | pest or weed control at 250 g/ha (Avena fatua (AVEFA); [10]) | further results
1 | Cc1cc(C)c(C2C(=O)CC(CC(=O)N(C)CC(C)C)C2=O)c(C)c1 (stereo not drawn) [Compound A159] | 80% | 90% | 70% | 60% | 90% | 90% | 50% | 20% | –
2 | Cc1cc(-c2ccc(C#N)cc2)cc(C)c1C1C(=O)CC(CC(=O)NC(C)C)C1=O (stereo not drawn) [Compound A37] | 90% | 100% | 80% | 90% | 80% | 100% | 100% | 90% | –
3 | Cc1cc(C)c(C2C(=O)CC(CC(=O)NC(C)C(C)(C)C)C2=O)c(C)c1 (stereo not drawn) [Compound B26] | – | – | – | – | – | – | – | – | pest or weed control at 250 g/ha ([1]; post-emergence, 360 h, 250 g/ha, post-emergence, 15 DAA, visual assessment (100%=total damage, 0%=no damage), read-out: Post-emergence herbicidal activity (percentage phytotoxicity) ECHCG POST): 60%; pest or weed control at 250 g/ha ([1]; pre-emergence, 480 h, 250 g/ha, pre-emergence, 20 DAA, visual assessment (100%=total damage, 0%=no damage), read-out: Pre-emergence herbicidal activity (percentage phytotoxicity) ECHCG PRE): 70%; pest or weed control at 250 g/ha ([2]; post-emergence, 360 h, 250 g/ha, post-emergence, 15 DAA, visual assessment (100%=total damage, 0%=no damage), read-out: Post-emergence herbicidal activity (percentage phytotoxicity) ALOMY POST): 70%; pest or weed control at 250 g/ha ([2]; pre-emergence, 480 h, 250 g/ha, pre-emergence, 20 DAA, visual assessment (100%=total damage, 0%=no damage), read-out: Pre-emergence herbicidal activity (percentage phytotoxicity) ALOMY PRE): 60%; pest or weed control at 250 g/ha (Lolium perenne (LOLPE); post-emergence, 360 h, 250 g/ha, post-emergence, 15 DAA, visual assessment (100%=total damage, 0%=no damage), read-out: Post-emergence herbicidal activity (percentage phytotoxicity) LOLPE POST): 60%; pest or weed control at 250 g/ha (Lolium perenne (LOLPE); pre-emergence, 480 h, 250 g/ha, pre-emergence, 20 DAA, visual assessment (100%=total damage, 0%=no damage), read-out: Pre-emergence herbicidal activity (percentage phytotoxicity) LOLPE PRE): 70%; pest or weed control at 250 g/ha (Avena fatua (AVEFA); post-emergence, 360 h, 250 g/ha, post-emergence, 15 DAA, visual assessment (100%=total damage, 0%=no damage), read-out: Post-emergence herbicidal activity (percentage phytotoxicity) AVEFA POST): 60%; pest or weed control at 250 g/ha (Avena fatua (AVEFA); pre-emergence, 480 h, 250 g/ha, pre-emergence, 20 DAA, visual assessment (100%=total damage, 0%=no damage), read-out: Pre-emergence herbicidal activity (percentage phytotoxicity) AVEFA PRE): 20%
4 | Cc1ccc(CNC(=O)CC2CC(=O)C(c3c(C)cc(C)cc3C)C2=O)nc1 (stereo not drawn) [Compound A23] | 90% | 100% | 80% | 80% | 80% | 70% | 70% | 60% | –
5 | COCCCN(C(=O)CC1CC(OC(=O)C(C)(C)C)=C(c2c(C)cc(C)cc2C)C1=O)C(=O)C(C)(C)C (stereo not drawn) [Compound P9] | – | – | – | – | – | – | – | – | pest or weed control at 250 g/ha ([1]; post-emergence, 360 h, Rate 250 g/ha, post-emergence, visual assessment 15 DAA, 100%=total damage, 0%=no damage, read-out: Post-emergence herbicidal activity (percentage phytotoxicity) ECHCG POST): 80%; pest or weed control at 250 g/ha ([1]; pre-emergence, 480 h, Rate 250 g/ha, pre-emergence, visual assessment 20 DAA, 100%=total damage, 0%=no damage, read-out: Pre-emergence herbicidal activity (percentage phytotoxicity) ECHCG PRE): 90%; pest or weed control at 250 g/ha ([2]; post-emergence, 360 h, Rate 250 g/ha, post-emergence, visual assessment 15 DAA, 100%=total damage, 0%=no damage, read-out: Post-emergence herbicidal activity (percentage phytotoxicity) ALOMY POST): 80%; pest or weed control at 250 g/ha ([2]; pre-emergence, 480 h, Rate 250 g/ha, pre-emergence, visual assessment 20 DAA, 100%=total damage, 0%=no damage, read-out: Pre-emergence herbicidal activity (percentage phytotoxicity) ALOMY PRE): 90%; pest or weed control at 250 g/ha (Lolium perenne (LOLPE); post-emergence, 360 h, Rate 250 g/ha, post-emergence, visual assessment 15 DAA, 100%=total damage, 0%=no damage, read-out: Post-emergence herbicidal activity (percentage phytotoxicity) LOLPE POST): 80%; pest or weed control at 250 g/ha (Lolium perenne (LOLPE); pre-emergence, 480 h, Rate 250 g/ha, pre-emergence, visual assessment 20 DAA, 100%=total damage, 0%=no damage, read-out: Pre-emergence herbicidal activity (percentage phytotoxicity) LOLPE PRE): 90%; pest or weed control at 250 g/ha (Avena fatua (AVEFA); post-emergence, 360 h, Rate 250 g/ha, post-emergence, visual assessment 15 DAA, 100%=total damage, 0%=no damage, read-out: Post-emergence herbicidal activity (percentage phytotoxicity) AVEFA POST): 80%; pest or weed control at 250 g/ha (Avena fatua (AVEFA); pre-emergence, 480 h, Rate 250 g/ha, pre-emergence, visual assessment 20 DAA, 100%=total damage, 0%=no damage, read-out: Pre-emergence herbicidal activity (percentage phytotoxicity) AVEFA PRE): 60%
6 | C/C=C/c1cc(C)c(C2C(=O)CC(CC(=O)NCc3cccc(Cl)c3)C2=O)c(C)c1 (stereo not drawn) [Compound B241] | – | – | – | – | – | – | – | – | pest or weed control at 250 g/ha ([1]; post-emergence, 360 h, POST-emergence, rate 250 g/ha, visual score 15 DAA (100%=total damage, 0%=no damage), read-out: Post-emergence herbicidal activity (percentage phytotoxicity) ECHCG POST): 100%; pest or weed control at 250 g/ha ([1]; pre-emergence, 480 h, PRE-emergence, rate 250 g/ha, visual score 20 DAA (100%=total damage, 0%=no damage), read-out: Pre-emergence herbicidal activity (percentage phytotoxicity) ECHCG PRE): 70%; pest or weed control at 250 g/ha ([2]; post-emergence, 360 h, POST-emergence, rate 250 g/ha, visual score 15 DAA (100%=total damage, 0%=no damage), read-out: Post-emergence herbicidal activity (percentage phytotoxicity) ALOMY POST): 80%; pest or weed control at 250 g/ha ([2]; pre-emergence, 480 h, PRE-emergence, rate 250 g/ha, visual score 20 DAA (100%=total damage, 0%=no damage), read-out: Pre-emergence herbicidal activity (percentage phytotoxicity) ALOMY PRE): 60%; pest or weed control at 250 g/ha (Lolium perenne (LOLPE); post-emergence, 360 h, POST-emergence, rate 250 g/ha, visual score 15 DAA (100%=total damage, 0%=no damage), read-out: Post-emergence herbicidal activity (percentage phytotoxicity) LOLPE POST): 90%; pest or weed control at 250 g/ha (Lolium perenne (LOLPE); pre-emergence, 480 h, PRE-emergence, rate 250 g/ha, visual score 20 DAA (100%=total damage, 0%=no damage), read-out: Pre-emergence herbicidal activity (percentage phytotoxicity) LOLPE PRE): 80%; pest or weed control at 250 g/ha (Avena fatua (AVEFA); post-emergence, 360 h, POST-emergence, rate 250 g/ha, visual score 15 DAA (100%=total damage, 0%=no damage), read-out: Post-emergence herbicidal activity (percentage phytotoxicity) AVEFA POST): 100%; pest or weed control at 250 g/ha (Avena fatua (AVEFA); pre-emergence, 480 h, PRE-emergence, rate 250 g/ha, visual score 20 DAA (100%=total damage, 0%=no damage), read-out: Pre-emergence herbicidal activity (percentage phytotoxicity) AVEFA PRE): 50%
